This note sets out measurements from patent publication US12139492B2 (Endotarget Inc., priority 2021, dated 2024).

Each structure is given as a SMILES string.

The test system of one test is JeKo-1 cells. In words: Antiproliferative effect, MTS cell viability assay, JeKo-1 cells. Format: cell-based. The note with it: Homo sapiens; JeKo-1 mantle cell lymphoma cells; read-out: IC50 (anti-proliferation) JeKO-1 cells. The gist of the method:
(§1)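 Readout was MTS-derived formazan absorbance (490 nm) reflecting metabolically active cells. Treatment lasted 72 h over a 0–10 μM range (0.001, 0.01, 0.1, 1, 10 μM) in JeKo-1 and Mino B-cell malignancy cells.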

A further test addresses BTK (Homo sapiens, UniProt Q06187). In words: Degradation of BTK protein in Namalwa cells (Western blot; DC50, Dmax). The note with it: for DC50: BTK degradation, cell line not given.
A further test has as its system Mino cells. In words: Antiproliferative effect, MTS cell viability assay, Mino cells. Format: cell-based. The note with it: Homo sapiens, MINO, Mino mantle cell lymphoma cells; read-out: IC50 (anti-proliferation) Mino cells. The gist of the method: as §1

BTK, sequence (Q06187 whole entry): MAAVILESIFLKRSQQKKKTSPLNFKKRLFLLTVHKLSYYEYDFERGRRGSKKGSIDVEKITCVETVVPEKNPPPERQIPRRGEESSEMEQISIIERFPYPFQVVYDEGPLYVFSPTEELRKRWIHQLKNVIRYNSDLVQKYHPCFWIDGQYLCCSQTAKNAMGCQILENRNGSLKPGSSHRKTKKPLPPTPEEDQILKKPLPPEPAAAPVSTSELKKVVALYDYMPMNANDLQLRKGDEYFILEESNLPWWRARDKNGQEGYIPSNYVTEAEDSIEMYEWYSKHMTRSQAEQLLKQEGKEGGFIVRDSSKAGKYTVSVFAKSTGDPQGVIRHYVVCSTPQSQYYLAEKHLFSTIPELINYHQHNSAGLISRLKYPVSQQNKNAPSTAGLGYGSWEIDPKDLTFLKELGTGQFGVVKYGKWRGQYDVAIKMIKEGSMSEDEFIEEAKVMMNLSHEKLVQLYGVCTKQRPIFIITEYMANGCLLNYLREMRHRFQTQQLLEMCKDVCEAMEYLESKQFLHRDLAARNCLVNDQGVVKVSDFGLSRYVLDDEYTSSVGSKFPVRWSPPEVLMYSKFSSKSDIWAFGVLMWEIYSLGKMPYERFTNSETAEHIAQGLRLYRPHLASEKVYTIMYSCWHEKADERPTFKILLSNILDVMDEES
Experimental for BTK: Namalwa, JeKo-1, or Mino cells were plated in 24-well plates at a density of 10^5 cells/well. Media containing various drug concentrations were added on the day following plating (day 0) and allowed to incubate for 24 hours for Western blot. Media with the tested compound was changed every other day. […] Media were removed and dishes were washed with 1×DPBS. Lysates were made by adding 150 μL of complete lysis solution and scraping cells into a 1.5 mL microcentrifuge tube. Lysates were placed on a rotisserie at 4° C. for 30 min and then spun at 4° C. at 12000 rcf for 10 min. Supernatants were assayed for protein content, snap-frozen, and stored a −80° C. if not run immediately. Then 50 μg of protein was subjected to Western blot protocol. […] They were then imaged on a LICOR infrared scanner.

In general, Dmax refers to the largest share of the target that was removed. Higher therefore signals deep degradation. Broadly, the DC50 is the midpoint of the concentration-degradation curve. A higher DC50 goes with degradation only at high concentration. Take `NC(=O)c1c(-c2ccc(Oc3ccccc3)cc2)nn2c1NCC[C@H]2C1CCN(CC2CCN(CCN3CCN(c4ccc5c(c4)C(=O)N(C4CCC(=O)NC4=O)C5=O)CC3)CC2)CC1` (stereo partly drawn) [Compound 331, (7S)-7-(1-((1-(2-(4-(2-(2,6-dioxopiperidin-3-yl)-1,3-dioxoisoindolin-5-yl)piperazin-1-yl)ethyl)piperidin-4-yl)methyl)piperidin-4-yl)-2-(4-phenoxyphenyl)-4,5,6,7-tetrahydropyrazolo[1,5-a]pyrimidine-3-carboxamide]: the IC50 in the test on JeKo-1 cells is 1000 to 10000 nM; with Mino cells it was greater than 10000 nM. Moreover, the greatest degradation seen (Dmax) at BTK was greater than 75%. This compound came in with a DC50 at BTK greater than 50 nM.

On to `NC(=O)c1c(-c2ccc(Oc3ccccc3)cc2)nn2c1NCC[C@H]2C1CCN(CC2CCN(CCN3CCN(c4ccc5c(c4)CN(C4CCC(=O)NC4=O)C5=O)CC3)CC2)CC1` (stereo partly drawn) [Compound 332, (7S)-7-(1-((1-(2-(4-(2-(2,6-dioxopiperidin-3-yl)-1-oxoisoindolin-5-yl)piperazin-1-yl)ethyl)piperidin-4-yl)methyl)piperidin-4-yl)-2-(4-phenoxyphenyl)-4,5,6,7-tetrahydropyrazolo[1,5-a]pyrimidine-3-carboxamide], for which the IC50 in the test with JeKo-1 cells was 1000 to 10000 nM. Further, on BTK, the Dmax was greater than 75% and the DC50 was greater than 50 nM. The IC50 in the test with Mino cells was 1000 to 10000 nM.

Take `NC(=O)c1c(-c2ccc(Oc3ccccc3)cc2)nn2c1NCC[C@H]2C1CCN(CC2CCN(CCC3CCN(c4ccc5c(c4)C(=O)N(C4CCC(=O)NC4=O)C5=O)CC3)CC2)CC1` (stereo partly drawn) [Compound 333, (7S)-7-(1-((1-(2-(1-(2-(2,6-dioxopiperidin-3-yl)-1,3-dioxoisoindolin-5-yl)piperidin-4-yl)ethyl)piperidin-4-yl)methyl)piperidin-4-yl)-2-(4-phenoxyphenyl)-4,5,6,7-tetrahydropyrazolo[1,5-a]pyrimidine-3-carboxamide]: the IC50 with JeKo-1 cells was greater than 10000 nM. At BTK, this compound came in with a Dmax greater than 75% and a half-maximal degradation concentration (DC50) of 10 to 50 nM. Further, in the test on Mino cells, the IC50 is 1000 to 10000 nM.

In the case of `NC(=O)c1c(-c2ccc(Oc3ccccc3)cc2)nn2c1NCC[C@H]2C1CCN(CC2CCN(CCC3CCN(c4ccc5c(c4)CN(C4CCC(=O)NC4=O)C5=O)CC3)CC2)CC1` (stereo partly drawn) [Compound 334, (7S)-7-(1-((1-(2-(1-(2-(2,6-dioxopiperidin-3-yl)-1-oxoisoindolin-5-yl)piperidin-4-yl)ethyl)piperidin-4-yl)methyl)piperidin-4-yl)-2-(4-phenoxyphenyl)-4,5,6,7-tetrahydropyrazolo[1,5-a]pyrimidine-3-carboxamide], in the test on JeKo-1 cells, the IC50 was greater than 10000 nM. Also, on BTK, the Dmax was greater than 75% and the DC50 was in the range of 10 to 50 nM. Further, in the test with Mino cells, the IC50 was greater than 10000 nM.

Take `NC(=O)c1c(-c2ccc(Oc3ccccc3)cc2)nn2c1NCC[C@H]2C1CCN(CC2CCN(CCN3CCC(c4ccc5c(c4)C(=O)N(C4CCC(=O)NC4=O)C5=O)CC3)CC2)CC1` (stereo partly drawn) [Compound 335, (7S)-7-(1-((1-(2-(4-(2-(2,6-dioxopiperidin-3-yl)-1,3-dioxoisoindolin-5-yl)piperidin-1-yl)ethyl)piperidin-4-yl)methyl)piperidin-4-yl)-2-(4-phenoxyphenyl)-4,5,6,7-tetrahydropyrazolo[1,5-a]pyrimidine-3-carboxamide]: in the test on JeKo-1 cells, the IC50 lay in the range of 1000 to 10000 nM. At BTK, this compound registered a Dmax greater than 75% and a DC50 greater than 50 nM. In addition, the IC50 in the test with Mino cells is 1000 to 10000 nM.

Take `NC(=O)c1c(-c2ccc(Oc3ccccc3)cc2)nn2c1NCC[C@H]2C1CCN(CC2CCN(CCN3CCC(c4ccc5c(c4)CN(C4CCC(=O)NC4=O)C5=O)CC3)CC2)CC1` (stereo partly drawn) [Compound 336, (7S)-7-(1-((1-(2-(4-(2-(2,6-dioxopiperidin-3-yl)-1-oxoisoindolin-5-yl)piperidin-1-yl)ethyl)piperidin-4-yl)methyl)piperidin-4-yl)-2-(4-phenoxyphenyl)-4,5,6,7-tetrahydropyrazolo[1,5-a]pyrimidine-3-carboxamide]: the IC50 in the test with JeKo-1 cells was in the range of 1000 to 10000 nM. At BTK, this compound returned a Dmax greater than 75% and a DC50 of 10 to 50 nM. Moreover, the IC50 in the test with Mino cells was in the range of 1000 to 10000 nM.

As to `NC(=O)c1c(-c2ccc(Oc3ccccc3)cc2)nn2c1NCCC2C1CCN(C2CCN(C(=O)N3CCN(c4ccc5c(c4)C(=O)N(C4CCC(=O)NC4=O)C5=O)CC3)CC2)CC1` (stereo not drawn) [Compound 337, 7-(1′-(4-(2-(2,6-dioxopiperidin-3-yl)-1,3-dioxoisoindolin-5-yl)piperazine-1-carbonyl)-[1,4′-bipiperidin]-4-yl)-2-(4-phenoxyphenyl)-4,5,6,7-tetrahydropyrazolo[1,5-a]pyrimidine-3-carboxamide], the IC50 in the test with JeKo-1 cells was 1000 to 10000 nM. At BTK, this compound returned a Dmax greater than 50% and a DC50 greater than 50 nM. The IC50 in the test on Mino cells is greater than 10000 nM.

With `NC(=O)c1c(-c2ccc(Oc3ccccc3)cc2)nn2c1NCCC2C1CCN(C2CCN(C(=O)N3CCN(c4ccc5c(c4)CN(C4CCC(=O)NC4=O)C5=O)CC3)CC2)CC1` (stereo not drawn) [Compound 338, 7-(1′-(4-(2-(2,6-dioxopiperidin-3-yl)-1-oxoisoindolin-5-yl)piperazine-1-carbonyl)-[1,4′-bipiperidin]-4-yl)-2-(4-phenoxyphenyl)-4,5,6,7-tetrahydropyrazolo[1,5-a]pyrimidine-3-carboxamide], the IC50 with JeKo-1 cells was greater than 10000 nM. In addition, on BTK, the maximal degradation (Dmax) was greater than 50% and the DC50 was greater than 50 nM. Further, the IC50 in the test on Mino cells lay within 1000 to 10000 nM.

As for `NC(=O)c1c(-c2ccc(Oc3ccccc3)cc2)nn2c1NCCC2C1CCN(C2CCN(C(=O)N3CCN(Cc4ccc5c(c4)C(=O)N(C4CCC(=O)NC4=O)C5=O)CC3)CC2)CC1` (stereo not drawn) [Compound 339, 7-(1′-(4-((2-(2,6-dioxopiperidin-3-yl)-1,3-dioxoisoindolin-5-yl)methyl)piperazine-1-carbonyl)-[1,4′-bipiperidin]-4-yl)-2-(4-phenoxyphenyl)-4,5,6,7-tetrahydropyrazolo[1,5-a]pyrimidine-3-carboxamide], the IC50 in the test with JeKo-1 cells was greater than 10000 nM. On BTK, the Dmax was greater than 50% and the DC50 was greater than 50 nM. The IC50 in the test with Mino cells is greater than 10000 nM.

For `NC(=O)c1c(-c2ccc(Oc3ccccc3)cc2)nn2c1NCCC2C1CCN(C2CCN(C(=O)N3CCN(Cc4ccc5c(c4)CN(C4CCC(=O)NC4=O)C5=O)CC3)CC2)CC1` (stereo not drawn) [Compound 340, 7-(1′-(4-((2-(2,6-dioxopiperidin-3-yl)-1-oxoisoindolin-5-yl)methyl)piperazine-1-carbonyl)-[1,4′-bipiperidin]-4-yl)-2-(4-phenoxyphenyl)-4,5,6,7-tetrahydropyrazolo[1,5-a]pyrimidine-3-carboxamide], the IC50 with JeKo-1 cells was greater than 10000 nM. At BTK, this compound returned a Dmax greater than 50% and a DC50 greater than 50 nM. Moreover, the IC50 with Mino cells is greater than 10000 nM.

`NC(=O)c1c(-c2ccc(Oc3ccccc3)cc2)nn2c1NCCC2C1CCN(C2CCN(C(=O)N3CCC(N4CCN(c5ccc6c(c5)C(=O)N(C5CCC(=O)NC5=O)C6=O)CC4)CC3)CC2)CC1` (stereo not drawn) [Compound 341, 7-(1′-(4-(4-(2-(2,6-dioxopiperidin-3-yl)-1,3-dioxoisoindolin-5-yl)piperazin-1-yl)piperidine-1-carbonyl)-[1,4′-bipiperidin]-4-yl)-2-(4-phenoxyphenyl)-4,5,6,7-tetrahydropyrazolo[1,5-a]pyrimidine-3-carboxamide]: in the test with JeKo-1 cells, the IC50 is less than 1000 nM. On BTK, this compound gave a Dmax greater than 90% and a half-maximal degradation concentration (DC50) of 10 to 50 nM. Moreover, the IC50 in the test on Mino cells was in the range of 1000 to 10000 nM.

Take `NC(=O)c1c(-c2ccc(Oc3ccccc3)cc2)nn2c1NCCC2C1CCN(C2CCN(C(=O)N3CCC(N4CCN(c5ccc6c(c5)CN(C5CCC(=O)NC5=O)C6=O)CC4)CC3)CC2)CC1` (stereo not drawn) [Compound 342, 7-(1′-(4-(4-(2-(2,6-dioxopiperidin-3-yl)-1-oxoisoindolin-5-yl)piperazin-1-yl)piperidine-1-carbonyl)-[1,4′-bipiperidin]-4-yl)-2-(4-phenoxyphenyl)-4,5,6,7-tetrahydropyrazolo[1,5-a]pyrimidine-3-carboxamide]: the IC50 in the test on JeKo-1 cells is less than 1000 nM. Also, on BTK, the Dmax was greater than 90% and the DC50 is less than 10 nM. Also, the IC50 with Mino cells is less than 1000 nM.

In the case of `NC(=O)c1c(-c2ccc(Oc3ccccc3)cc2)nn2c1NCCC2C1CCN(C2CCN(C(=O)N3CCC(C4CCN(c5ccc6c(c5)C(=O)N(C5CCC(=O)NC5=O)C6=O)CC4)CC3)CC2)CC1` (stereo not drawn) [Compound 343, 7-(1′-(1′-(2-(2,6-dioxopiperidin-3-yl)-1,3-dioxoisoindolin-5-yl)-[4,4′-bipiperidine]-1-carbonyl)-[1,4′-bipiperidin]-4-yl)-2-(4-phenoxyphenyl)-4,5,6,7-tetrahydropyrazolo[1,5-a]pyrimidine-3-carboxamide], the IC50 in the test on JeKo-1 cells was less than 1000 nM; in the test on Mino cells, 1000 to 10000 nM. The Dmax at BTK is greater than 90%. For the same compound, at BTK, the DC50 is less than 10 nM.

Take `NC(=O)c1c(-c2ccc(Oc3ccccc3)cc2)nn2c1NCCC2C1CCN(C2CCN(C(=O)N3CCC(C4CCN(c5ccc6c(c5)CN(C5CCC(=O)NC5=O)C6=O)CC4)CC3)CC2)CC1` (stereo not drawn) [Compound 344, 7-(1′-(1′-(2-(2,6-dioxopiperidin-3-yl)-1-oxoisoindolin-5-yl)-[4,4′-bipiperidine]-1-carbonyl)-[1,4′-bipiperidin]-4-yl)-2-(4-phenoxyphenyl)-4,5,6,7-tetrahydropyrazolo[1,5-a]pyrimidine-3-carboxamide]: the IC50 in the test with JeKo-1 cells is less than 1000 nM. Besides, at BTK, the Dmax was greater than 90% and the DC50 is less than 10 nM. Besides, the IC50 in the test with Mino cells lay in the range of 1000 to 10000 nM.

In the case of `NC(=O)c1c(-c2ccc(Oc3ccccc3)cc2)nn2c1NCCC2C1CCN(C2CCN(C(=O)N3CCN(C4CCN(c5ccc6c(c5)C(=O)N(C5CCC(=O)NC5=O)C6=O)CC4)CC3)CC2)CC1` (stereo not drawn) [Compound 345, 7-(1′-(4-(1-(2-(2,6-dioxopiperidin-3-yl)-1,3-dioxoisoindolin-5-yl)piperidin-4-yl)piperazine-1-carbonyl)-[1,4′-bipiperidin]-4-yl)-2-(4-phenoxyphenyl)-4,5,6,7-tetrahydropyrazolo[1,5-a]pyrimidine-3-carboxamide], the IC50 in the test with JeKo-1 cells lay in the range of 1000 to 10000 nM. In addition, at BTK, the Dmax was greater than 90% and the DC50 was less than 10 nM. In addition, in the test on Mino cells, the IC50 fell in the range of 1000 to 10000 nM.
